In ChEMBL document CHEMBL1146812 (Bioorg Med Chem Lett, 2004):

Legend:
[1] = target: Melatonin receptor type 1A (Homo sapiens, UniProt P48039); test: Binding affinity against human Melatonin receptor type 1A by using 2-[125I]iodomelatonin as radioligand
[2] = target: T1, Melatonin receptor type 1B (Homo sapiens, UniProt P49286); test: Binding affinity against human Melatonin receptor type 1B by using 2-[125I]iodomelatonin as radioligand
T1 sequence (P49286 whole entry): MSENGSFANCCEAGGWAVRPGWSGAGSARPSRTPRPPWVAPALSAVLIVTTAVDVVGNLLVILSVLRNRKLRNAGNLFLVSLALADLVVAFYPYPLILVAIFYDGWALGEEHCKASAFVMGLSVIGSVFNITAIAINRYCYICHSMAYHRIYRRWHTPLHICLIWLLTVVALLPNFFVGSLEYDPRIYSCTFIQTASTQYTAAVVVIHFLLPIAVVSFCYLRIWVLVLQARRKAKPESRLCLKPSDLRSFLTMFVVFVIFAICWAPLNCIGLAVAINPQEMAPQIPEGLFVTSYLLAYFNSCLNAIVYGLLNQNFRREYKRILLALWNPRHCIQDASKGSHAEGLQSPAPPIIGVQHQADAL

[3] = target: Melatonin receptor type 1B (Homo sapiens) (UniProt P49286); test: Agonist activity for its ability to inhibit forskolin-stimulated cAMP accumulation against MT2 receptor
[4] = target: Melatonin receptor type 1B (Homo sapiens) (UniProt P49286); test: Intrinsic activity against human melatonin receptor (MT)
[5] = target: T2, Melatonin receptor (Homo sapiens, UniProt P48039+P49286); test: Intrinsic activity against human melatonin receptor (MT); format: protein assay
T2 sequence (P48039 whole entry, looked up, one chain of several): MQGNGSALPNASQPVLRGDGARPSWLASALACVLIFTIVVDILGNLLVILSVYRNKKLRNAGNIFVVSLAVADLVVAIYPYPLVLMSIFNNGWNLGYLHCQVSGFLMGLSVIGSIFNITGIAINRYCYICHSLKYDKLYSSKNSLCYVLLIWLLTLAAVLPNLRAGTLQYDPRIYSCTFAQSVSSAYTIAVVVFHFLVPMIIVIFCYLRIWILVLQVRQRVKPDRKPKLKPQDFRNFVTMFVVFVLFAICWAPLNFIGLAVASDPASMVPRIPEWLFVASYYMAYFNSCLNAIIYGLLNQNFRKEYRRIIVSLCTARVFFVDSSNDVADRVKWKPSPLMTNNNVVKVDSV

[6] = target: T2, Melatonin receptor; test: Agonist activity for its ability to inhibit forskolin-stimulated cAMP accumulation against MT1 receptor; format: functional

Chain of Melatonin receptor type 1A (P48039 whole entry): as the sequence (P48039 whole entry, looked up, one chain of several) above

SMILES | Ki [1] | Ki [2] | EC50 [3] | Activity [4] | Activity [5] | EC50 [6]
CCc1nc2cccc(CCCNC(=O)C(C)C)c2o1 | 13.2 nM | 4.5 nM | – | – | – | –
CCc1nc2cccc(CCCNC(=O)C3CC3)c2o1 | 4.5 nM | 4.7 nM | – | – | – | –
CCC(=O)NCCCc1cccc2nc(CCCCc3ccccc3)oc12 | 0.76 nM | 14 nM | – | – | – | –
CC(=O)NCCCc1cccc2nc(-c3ccccc3)oc12 | 40 nM | 89 nM | – | – | – | –
Cc1nc2cccc(CCCNC(=O)C(C)C)c2o1 | 3 nM | 2.3 nM | – | – | – | –
Cc1nc2cccc(CCCNC(=O)C3CC3)c2o1 | 0.7 nM | 2.7 nM | 0.74 nM | 0.96 | – | –
CC(C)C(=O)NCCCc1cccc2nc(-c3ccccc3)oc12 | 87 nM | 57 nM | – | – | – | –
CCCc1nc2cccc(CCCNC(=O)NCC)c2o1 | 492 nM | 36 nM | – | – | – | –
CCCC(=O)NCCCc1cccc2nc(CC)oc12 | 8.1 nM | 1 nM | – | – | – | –
CCCc1nc2cccc(CCCNC(C)=O)c2o1 | 183 nM | 35 nM | – | – | – | –
CCCC(=O)NCCCc1cccc2ncoc12 | 9.9 nM | 3.7 nM | – | – | – | –
CCC(=O)NCCCc1cccc2nc(CC)oc12 | 3.5 nM | 1 nM | – | – | – | –
CCNC(=O)NCCCc1cccc2nc(C(C)C)oc12 | 194 nM | 52 nM | – | – | – | –
O=C(NCCCc1cccc2nc(CCCCc3ccccc3)oc12)C1CC1 | 0.63 nM | 22 nM | – | – | – | –
CCNC(=O)NCCCc1cccc2nc(C)oc12 | 50 nM | 26 nM | – | – | – | –
CCCc1nc2cccc(CCCNC(=O)C(C)C)c2o1 | 60 nM | 29 nM | – | – | – | –
CC(C)c1nc2cccc(CCCNC(=O)C3CC3)c2o1 | 34 nM | 114 nM | – | – | – | –

More lines, in order of falling Ki [1], values ahead:

Ki [1] | Ki [2] | EC50 [3] | Activity [4] | Activity [5] | EC50 [6] | SMILES
340 nM | 61 nM | – | – | – | – | CCNC(=O)NCCCc1cccc2nc(-c3ccccc3)oc12
166 nM | 22 nM | – | – | – | – | CCCC(=O)NCCCc1cccc2nc(CCC)oc12
142 nM | 15 nM | – | – | – | – | CCC(=O)NCCCc1cccc2nc(C(C)C)oc12
119 nM | 16 nM | – | – | – | – | CCCC(=O)NCCCc1cccc2nc(C(C)C)oc12
116 nM | 35 nM | – | – | – | – | CC(=O)NCCCc1cccc2nc(C(C)C)oc12
75 nM | 12 nM | – | – | – | – | CCNC(=O)NCCCc1cccc2nc(CC)oc12
60 nM | 17 nM | – | – | – | – | CCCC(=O)NCCCc1cccc2nc(-c3ccccc3)oc12
51 nM | 27 nM | – | – | – | – | CCCc1nc2cccc(CCCNC(=O)CC)c2o1
44 nM | 7.6 nM | – | – | – | – | CCCc1nc2cccc(CCCNC(=O)C3CC3)c2o1
40 nM | 88 nM | – | – | – | – | CC(C)C(=O)NCCCc1cccc2nc(C(C)C)oc12
30 nM | 4.3 nM | – | – | – | – | CC(=O)NCCCc1cccc2ncoc12
24 nM | 5.3 nM | – | – | – | – | CC(=O)NCCCc1cccc2nc(C)oc12
23 nM | 38 nM | – | – | – | – | O=C(NCCCc1cccc2nc(-c3ccccc3)oc12)C1CC1
13.1 nM | 10 nM | – | – | – | – | CCC(=O)NCCCc1cccc2nc(-c3ccccc3)oc12
9 nM | 2.3 nM | – | – | – | – | CCc1nc2cccc(CCCNC(C)=O)c2o1
6.6 nM | 1.8 nM | – | – | – | – | CCC(=O)NCCCc1cccc2ncoc12
3.3 nM | 29 nM | – | – | – | – | CCCC(=O)NCCCc1cccc2nc(CCCCc3ccccc3)oc12
2.8 nM | 2.8 nM | – | – | 0.98 | 0.26 nM | CCC(=O)NCCCc1cccc2nc(C)oc12
2.3 nM | 2.2 nM | – | – | – | – | CCCC(=O)NCCCc1cccc2nc(C)oc12
1.3 nM | 18 nM | – | – | – | – | CC(C)C(=O)NCCCc1cccc2nc(CCCCc3ccccc3)oc12
1.3 nM | 16 nM | – | – | – | – | CC(=O)NCCCc1cccc2nc(CCCCc3ccccc3)oc12
